This is an account of results in patent publication US20050009840A1 (SUGEN, INC., priority 2003, published 2005).

Molecules are shown by their SMILES. Several values for one entry are separate records, joined by “and”; a condition that tells them apart may be missing. Equal entries are not always repeated.

For orientation: IC50 means the concentration needed to halve the response being measured.

The target of the assay is T1, Met kinase domain (GST fusion protein) (Homo sapiens, UniProt P08581).
T1 construct: Purified GST fusion protein containing the Met kinase domain
T1 sequence (P08581 1078-1345 limits assumed): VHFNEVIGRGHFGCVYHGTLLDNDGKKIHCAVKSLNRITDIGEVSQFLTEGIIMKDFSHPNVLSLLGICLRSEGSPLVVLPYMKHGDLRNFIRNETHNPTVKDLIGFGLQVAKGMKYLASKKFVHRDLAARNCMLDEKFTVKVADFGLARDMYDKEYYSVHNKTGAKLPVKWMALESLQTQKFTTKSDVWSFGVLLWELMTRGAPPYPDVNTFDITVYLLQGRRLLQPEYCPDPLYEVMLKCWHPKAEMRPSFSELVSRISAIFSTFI
The experiment in a line: Met transphosphorylation assay (ELISA, poly(glu-tyr) substrate).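 Also: Cell-free ELISA with plate-bound poly(Glu:Tyr 4:1) phosphorylated by GST-fused Met kinase domain plus ATP and Mn2+, phosphotyrosine detected by anti-phosphotyrosine antibody with HRP and ABTS read-out.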 The assay is classed as biochemical. The settings on record: Table 2; read-out: Met IC50. For orientation: In an ELISA, binding on a coated surface is turned into a signal by an enzyme label.
In the case of `Nc1ncc(-c2cccc(C(=O)O)c2)cc1OCc1c(F)ccc(F)c1Cl` [Example I-225, 3-[6-Amino-5-(2-chloro-3,6-difluoro-benzyloxy)-pyridin-3-yl]-benzoic acid], the IC50 is 3700 nM and 600 nM.

Regarding `CN1CCN(C(=O)c2cccc(-c3cnc(N)c(OCc4c(F)ccc(F)c4Cl)c3)c2)CC1` [Example I-226, {3-[6-Amino-5-(2-chloro-3,6-difluoro-benzyloxy)-pyridin-3-yl]-phenyl}-(4-methyl-piperazin-1-yl)-methanone], the IC50 worked out at 68 nM.

On to `Nc1ncc(-c2cccc(C(=O)N3CCC(N)CC3)c2)cc1OCc1c(F)ccc(F)c1Cl` [Example I-228, {3-[6-Amino-5-(2-chloro-3,6-difluoro-benzyloxy)-pyridin-3-yl]-phenyl}-(4-amino-piperidin-1-yl)-methanone], for which the IC50 amounted to 230 nM.

For the compound `CN(C)[C@H]1CCN(C(=O)c2cccc(-c3cnc(N)c(OCc4c(F)ccc(F)c4Cl)c3)c2)C1` [Example I-231, {-[6-Amino-5-(2-chloro-3,6-difluoro-benzyloxy)-pyridin-3-yl]-phenyl}-[(3S)-3-dimethylamino-pyrrolidin-1-yl]-methanone], the concentration for half-maximal inhibition (IC50) came to 128 nM.

As for `Nc1ncc(-c2cccc(C(=O)N3CC[C@@H](N)C3)c2)cc1OCc1c(F)ccc(F)c1Cl` [Example I-232, {3-[6-Amino-5-(2-chloro-3,6-difluoro-benzyloxy)-pyridin-3-yl]-phenyl}-[(3R)-3-amino-pyrrolidin-1-yl]-methanone], the IC50 came out at 120 nM.

Take `Nc1ncc(-c2cccc(C(=O)N3CC[C@H](N)C3)c2)cc1OCc1c(F)ccc(F)c1Cl` [Example I-233, {3-[6-Amino-5-(2-chloro-3,6-difluoro-benzyloxy)-pyridin-3-yl]-phenyl}-[(3S)-amino-pyrrolidin-1-yl]-methyanone]: the half-maximal inhibitory concentration (IC50) came to 120 nM.

As to `Nc1ncc(-c2cccc(C(=O)NCCN3CCCC3)c2)cc1OCc1c(F)ccc(F)c1Cl` [Example I-235, 3-[6-Amino-5-(2-chloro-3,6-difluoro-benzyloxy)-pyridin-3-yl]-N-(2-pyrrolidin-1-yl-ethyl)-benzamide], the IC50 worked out at 260 nM.

As for `Nc1ncc(-c2cccc(C(=O)NCCCN3CCCC3)c2)cc1OCc1c(F)ccc(F)c1Cl` [Example I-236, 3-[6-Amino-5-(2-chloro-3,6-difluoro-benzyloxy)-pyridin-3-yl]-N-(3-pyrrolidin-1-yl-propyl)-benzamide], the 50% inhibitory concentration (IC50) came out at 280 nM.

As to `Nc1ncc(-c2cccc(C(=O)NCCN3CCOCC3)c2)cc1OCc1c(F)ccc(F)c1Cl` [Example I-237, 3-[6-Amino-5-(2-chloro-3,6-difluoro-benzyloxy)-pyridin-3-yl]-N-(2-morpholin-4-yl-ethyl)-benzamide], the IC50 was found to be 350 nM.

`Nc1ncc(-c2cccc(C(=O)NCCCN3CCOCC3)c2)cc1OCc1c(F)ccc(F)c1Cl` [Example I-238, 3-[6-Amino-5-(2-chloro-3,6-difluoro-benzyloxy)-pyridin-3-yl]-N-(3-morpholin-4-yl-propyl)-benzamide]: the half-inhibitory concentration (IC50) came to 350 nM.

As for `CC(=O)N1CCN(CCNC(=O)c2cccc(-c3cnc(N)c(OCc4c(F)ccc(F)c4Cl)c3)c2)CC1` [Example I-239, N-[2-(4-Acetyl-piperazin-1-yl)-ethyl]-3-[6-amino-5-(2-chloro-3,6-difluoro-benzyloxy)-pyridin-3-yl]-benzamide], the IC50 is 100 nM.

`Nc1ncc(-c2ccc(N3CCCS3(=O)=O)cc2)cc1OCc1c(F)ccc(F)c1Cl` [Example I-240, 3-(2-Chloro-3,6-difluoro-benzyloxy)-5-[4-(1,1-dioxo-1λ^6-isothiazolidin-1-yl)-phenyl]-pyridin-2-ylamine]: the IC50 worked out at 100 nM.

Take `Nc1ncc(-c2ccc(N3CCCS3(=O)=O)cc2)cc1OCc1c(Cl)cccc1Cl` [Example I-241]: the 50% inhibitory concentration (IC50) is 67 nM.

For the compound `Nc1ncc(-c2ccc(N3CCCS3(=O)=O)cc2)cc1OCc1c(F)cccc1C(F)(F)F` [Example I-242, 5-[4-(1,1-Dioxo-1λ^6-isothiazolidin-2-yl)-phenyl]-3-(2-fluoro-6-trifluoromethyl-benzyloxy)-pyridin-2-ylamine], the half-inhibitory concentration (IC50) came to 140 nM.

For the compound `CCN(CC)CCS(=O)(=O)Nc1ccc(-c2cnc(N)c(OCc3c(F)ccc(F)c3Cl)c2)cc1` [Example I-243, 2-diethylamino-ethanesulfonic acid {4-[6-amino-5-(2-chloro-3,6-difluoro-benzyloxy)-pyridin-3-yl]-phenyl)amide], the IC50 came out at 43 nM.

With `Nc1ncc(-c2ccc(NS(=O)(=O)CCNC3CC3)cc2)cc1OCc1c(F)ccc(F)c1Cl` [Example I-244, 2-Cydopropylamino-ethanesulfonic acid {4-[6-amino-5-(2-chloro-3,6-difluoro-benzyloxy)-pyridin-3-yl]-phenyl}-amide], the IC50 was found to be 81 nM.

As to `Nc1ncc(-c2ccc(NS(=O)(=O)CCN3CCCC3)cc2)cc1OCc1c(F)ccc(F)c1Cl` [Example I-245], the IC50 is 82 nM.

For `Nc1ncc(-c2ccc(NS(=O)(=O)CCN3CCC(O)CC3)cc2)cc1OCc1c(F)ccc(F)c1Cl` [Example I-246, 2-(4-Hydoxy-piperidin-1-yl)-ethanesulfonic acid {4-[6-amino-5-(2-chloro-3,6-difluoro-benzyloxy)-pyridin-3-yl]-phenyl}-amide], the IC50 was 135 nM.

`Nc1ncc(-c2ccc(NS(=O)(=O)CCN3CCOCC3)cc2)cc1OCc1c(F)ccc(F)c1Cl` [Example I-247, 2-Morpholin-4-yl-ethanesulfonic acid {4-[6-amino-5-(2-chloro-3,6-difluoro-benzyloxy)-pyridin-3-yl]-phenyl}-amide]: the IC50 was determined as 310 nM.

`Nc1ncc(-c2ccc(NS(=O)(=O)CCN3CCCCC3)cc2)cc1OCc1c(F)ccc(F)c1Cl` [Example I-248, 2-Pipendin-1-yl-ethanesulfonic acid {4-[6-amino-5-(2-chloro-3,6-difluoro-benzyloxy)-pyridin-3-yl]-phenyl}-amide]: the concentration for half-maximal inhibition (IC50) amounted to 114 nM.

As for `CN(C)CCS(=O)(=O)Nc1ccc(-c2cnc(N)c(OCc3c(F)ccc(F)c3Cl)c2)cc1` [Example I-249, 2-Dimethylamino-ethanesulfonic acid {4-[6-amino-5-(2-chloro-3,6-difluoro-benzyloxy)-pyridin-3-yl]-phenyl}-amide], the half-inhibitory concentration (IC50) stood at 98 nM.

`CC(=O)N1CCN(CCS(=O)(=O)Nc2ccc(-c3cnc(N)c(OCc4c(F)ccc(F)c4Cl)c3)cc2)CC1` [Example I-250, 2-(4-Acetyl-piperazin-1-yl)-ethanesulfonic acid {4-[6-amino-5-(2-chloro-3,6-difluoro-benzyloxy)-pyridin-3-yl]-phenyl}-amide]: the concentration for half-maximal inhibition (IC50) turned out to be 420 nM.

With `Nc1ncc(-c2ccc(NS(=O)(=O)CCNCC3CC3)cc2)cc1OCc1c(F)ccc(F)c1Cl` [Example I-251, 2-(Cyclopropylmethyl-amino)-ethanesulfonic acid {4-[6-amino-5-(2-chloro-3,6-difluoro-benzyloxy)-pyridin-3-yl]-phenyl}-amide], the IC50 amounted to 75 nM.

In the case of `Nc1ncc(-c2ccc(NS(=O)(=O)CCN3CC[C@@H](O)C3)cc2)cc1OCc1c(F)ccc(F)c1Cl` [Example I-252, 2-[(3R)-3-Hydroxy-pyrrolidin-1-yl]-ethanesulfonic acid {4-[6-amino-5-(2-chloro-3,6-difluoro-benzyloxy)-pyridin-3-yl]-phenyl}-amide], the IC50 turned out to be 125 nM.

Consider `Nc1ncc(-c2ccc(NS(=O)(=O)CCN3CCC[C@H]3CO)cc2)cc1OCc1c(F)ccc(F)c1Cl` [Example I-253, 2-[(2S)-2-Hydroxymethyl-pyrrolidin-1-yl]-ethanesulfonic acid {4-[6-amino-5-(2-chloro-3,6-difluoro-benzyloxy)-pyridin-3-yl]-phenyl}-amide], for which the half-inhibitory concentration (IC50) is 97 nM.

As to `Nc1ncc(-c2ccc(NS(=O)(=O)CCN3CCN(C(=O)CO)CC3)cc2)cc1OCc1c(F)ccc(F)c1Cl` [Example I-254, 2-[4-(2-Hydroxy-acetyl)-piperazin-1-yl]-ethanesulfonic acid {4-[6-amino-5-(2-chloro-3,6-difluoro-benzyloxy)-pyridin 3-yl]-phenyl}-amide], the IC50 worked out at 180 nM.

Turning to `CC(=O)N1CCN(CCS(=O)(=O)Nc2cccc(-c3cnc(N)c(OCc4c(F)ccc(F)c4Cl)c3)c2)CC1` [Example I-255, 2-(4-Acetyl-piperazin-1-yl)-ethanesulfonic acid {3-[6-amino-5-(2-chloro-3,6-difluoro-benzyloxy)-pyridin-3-yl]-phenyl}-amide], the IC50 amounted to 680 nM.

For `Nc1ncc(-c2cccc(NS(=O)(=O)CCN3CCCC3)c2)cc1OCc1c(F)ccc(F)c1Cl` [Example I-256, 2-Pyrrolidin-1-yl-ethanesulfonic acid {3-[6-amino-5-(2-chloro-3,6-difluoro-benzyloxy)-pyridin-3-yl]-phenyl}-amide], the IC50 worked out at 230 nM.

Regarding `Nc1ncc(-c2cccc(NS(=O)(=O)CCN3CCOCC3)c2)cc1OCc1c(F)ccc(F)c1Cl` [Example I-257, 2-Morpholin-4-yl-ethanesulfonic acid {3-[6-amino-5-(2-chloro-3,6-difluoro-benzyloxy)-pyridin-3-yl]-phenyl}-amide], the IC50 was 1640 nM.

As for `CCN(CC)CCS(=O)(=O)Nc1cccc(-c2cnc(N)c(OCc3c(F)ccc(F)c3Cl)c2)c1` [Example I-258, 2-Diethylamino-ethanesulfonic acid {3-[6-amino-5-(2-chloro-3,6-difluoro-benzyloxy)-pyridin-3-yl]-phenyl}amide], the IC50 was 1670 nM.

`CN(C)CCS(=O)(=O)Nc1cccc(-c2cnc(N)c(OCc3c(F)ccc(F)c3Cl)c2)c1` [Example I-259, 2-Dimethylamino-ethanesulfonic acid {3-[6-amino-5-(2-chloro-3,6-difluoro-benzyloxy)-pyridin-3-yl]-phenyl}-amide]: the IC50 was 500 nM.

Turning to `Nc1ncc(-c2cccc(NS(=O)(=O)CCN3CCCCC3)c2)cc1OCc1c(F)ccc(F)c1Cl` [Example I-260, 2-Pipendin-1-yl-ethanesulfonic acid {3-[6-amino-5-(2-chloro-3,6-difluoro-benzyloxy)-pyridin-3-yl]-phenyl}-amide], the half-maximal inhibitory concentration (IC50) worked out at 1630 nM.
